Among the data in US6812232B2, “Heterocycle substituted purine derivatives as potent antiproliferative agents” (AMR Technology, Inc., priority 2001, dated 2004) are GI50, melting point and IC50 values, retold here.

Values joined by “and” are separate entries in the source; they are usually repeats but may differ in a detail not shown here. Equal values may be shown once.

A word on the GI50: it is the concentration at which growth is held to half of that of the control. Lower therefore signals greater sensitivity of the cells. What is called melting point is the temperature of the solid-liquid transition.

One data set has as its system HeLa S-3 cells. Briefly: Inhibition of cell growth (SRB), HeLa. The following applies: Table 2, 2 days of treatment, replicate experimental results. It is filed as cell-based, human. The protocol:
D. Measuring the Inhibition of Cell Growth.
Growth inhibition (GI50) values were measured with HeLa S-3 cells selected for growth on plastic. […] One day later, a control plate was fixed by addition of TCA to 5%. After five rinses with tap water the plate was air dried and stored at 4° C. Test compounds were added to the remaining plates at 10-fold dilutions between 0.01 and 100 μM. Two days later all plates were fixed as described above. Cells were then stained by the addition of 100 […] of 0.4% sulforhodamine B (SRB) in 1% acetic acid for 30 min at 4° C. Wells were then quickly rinsed 5× with acetic acid (1%) and allowed to air dry. The SRB was then solubilized by the addition of 100 μl per well of unbuffered 10 mM Tris base. Dye was quantified by measuring absorbance at 490 nm on a Molecular Devices kinetic microplate reader. Growth at each inhibitor concentration relative to the untreated control was calculated according to the following equation: percent growth=100×(T−To)/(C−To), where T was the average optical density (OD) of the test wells after 2 days of treatment, To was the average OD of the wells in the control plate on day 0 and C was the average OD of untreated wells. Plots of percent growth versus inhibitor concentration were used to determine the GI50.

The target in a further data set is T1, CyclinB/cdk1 (Homo sapiens, UniProt P06493).
T1 construct: Monoclonal antibody against cyclinB (GNS1) is added to the supernatant; endogenous in cells
T1 sequence (P06493 whole entry): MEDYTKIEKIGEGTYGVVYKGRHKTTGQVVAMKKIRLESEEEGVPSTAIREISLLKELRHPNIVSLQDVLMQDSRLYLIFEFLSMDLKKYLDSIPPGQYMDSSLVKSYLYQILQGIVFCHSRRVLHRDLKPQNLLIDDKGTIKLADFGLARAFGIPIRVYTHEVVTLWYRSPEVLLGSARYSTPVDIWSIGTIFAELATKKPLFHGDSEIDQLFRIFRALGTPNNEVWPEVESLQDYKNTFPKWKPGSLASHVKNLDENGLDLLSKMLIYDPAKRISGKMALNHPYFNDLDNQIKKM
T1 sequence (P14635 whole entry partner): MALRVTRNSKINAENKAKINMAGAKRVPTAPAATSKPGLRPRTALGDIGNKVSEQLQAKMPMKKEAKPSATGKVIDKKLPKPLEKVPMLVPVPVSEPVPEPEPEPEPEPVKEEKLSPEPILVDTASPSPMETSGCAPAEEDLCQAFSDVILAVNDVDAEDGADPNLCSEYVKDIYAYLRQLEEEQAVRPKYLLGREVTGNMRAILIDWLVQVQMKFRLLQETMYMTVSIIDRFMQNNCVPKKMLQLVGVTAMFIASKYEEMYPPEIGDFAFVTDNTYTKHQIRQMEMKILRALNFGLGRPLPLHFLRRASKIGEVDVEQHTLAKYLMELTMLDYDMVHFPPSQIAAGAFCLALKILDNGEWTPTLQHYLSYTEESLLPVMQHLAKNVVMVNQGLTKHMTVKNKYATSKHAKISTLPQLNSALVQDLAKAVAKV
Kind of data set: CyclinB/cdk1 protein kinase assay (histone H1 phosphorylation). It is filed as biochemical. The following applies: Table 2; complexes isolated from HeLa cells, histone H1, 15 μM ATP; replicate experimental results; read-out: IC50 CyclinB/cdkl.

Protocol for CyclinB/cdk1: HeLa cells are blocked at the G1/S border by culturing in the presence of 2 mM thymidine for 20 h. The cells are then rinsed 3× in phosphate buffered saline and resuspended in regular medium. After 4 h of culture, the mitotic blocker, nocodazole is added to a final concentration of 75 ng/ml. […] The lysate is then clarified by centrifugation at 10,000×g for 10 min. The supernatant is collected and diluted 1:5 with Lysis Buffer. Monoclonal antibody against cyclinB (GNS1) is added to the supernatant to a final concentration of 5 μg/ml and shaken at 4° C. for 2 h. The immune complexes are then collected by the addition of 200 μl of protein agarose beads for 1 h. The beads are washed 4× in lysis buffer and 1× in kinase assay buffer.
Duplicate assays were performed at each concentration.

In the data set with HeLa S-3 cells, `CC(C)n1cnc2c(NCc3ccc(-c4ccsc4)cc3)nc(N[C@H]3CC[C@H](NC(=O)OC(C)(C)C)CC3)nc21` [Compound 130] yielded a GI50 greater than 10000 nM.

Turning to `CC(=O)NC1CCC(Nc2nc(NCc3ccc(-c4cccc(C)c4)cc3)c3ncn(C(C)C)c3n2)CC1` (centres unmarked) [Compound 178], in the data set with HeLa S-3 cells, the GI50 was 400 nM and 200 nM.

`CC(C)n1cnc2c(NCc3ccc(-c4ccccc4)cc3)nc(N[C@H]3CC[C@H](NC(=O)OC(C)(C)C)CC3)nc21` [Compound 133] yielded a GI50 in the data set with HeLa S-3 cells greater than 10000 nM.

Compound `CC(=O)N[C@H]1CC[C@H](Nc2nc(NCc3ccc(-c4ccco4)nc3)c3ncn(C(C)C)c3n2)CC1` [Compound 206] displayed a melting point of 216 to 218 °C.

With `COc1cccc(-c2ccc(CNc3nc(NC4CCC(NC(C)=O)CC4)nc4c3ncn4C(C)C)cc2)c1` (centres unmarked) [Compound 180], the GI50 in the data set with HeLa S-3 cells was 400 nM and 300 nM.

As for `CC(=O)N[C@H]1CC[C@H](Nc2nc(NCc3ccc(-c4cccc(F)c4)nc3)c3ncn(C(C)C)c3n2)CC1` [Compound 188], the melting point lay within 199 to 230 °C.

Take `CC(C)n1cnc2c(NCc3ccc(-c4ccccc4)cn3)nc(N[C@H]3CC[C@H](N)CC3)nc21` [Compound 229]: the GI50 in the data set with HeLa S-3 cells (Homo sapiens, HeLa S3, 48 h) turned out to be 400 nM. This counts as sub-micromolar.

The compound `CC(C)n1cnc2c(NCc3cccc(-c4ccsc4)c3)nc(N[C@H]3CC[C@H](N)CC3)nc21` [Compound 131] yielded a melting point of 211 to 216 °C. Further, in the data set with HeLa S-3 cells (Homo sapiens, HeLa S3, 48 h), growth was halved (GI50) at 3000 nM. Moreover, halving of growth in the data set with HeLa S-3 cells (GI50) required 2000 nM.

`CC(=O)N[C@H]1CC[C@H](Nc2nc(NCc3cccc(-c4ccsc4)c3)c3ncn(C(C)C)c3n2)CC1` [Compound 132] showed a melting point of 209 to 211 °C. In the data set with HeLa S-3 cells (Homo sapiens, HeLa S3, 48 h), halving of growth (GI50) required 4000 nM. In the data set with HeLa S-3 cells, this compound had a GI50 of 3000 nM.

Take `CC(=O)NCCNc1nc(NCc2ccc(-c3ccccc3)cc2)c2ncn(C(C)C)c2n1` [Compound 208]: the GI50 in the data set on HeLa S-3 cells was 4000 nM and 3000 nM.

Take `CC[C@H](CO)Nc1nc(NCc2ccc(-c3cccc([N+](=O)[O-])c3)cc2)c2ncn(C(C)C)c2n1` [Compound 48]: the IC50 on CyclinB/cdk1 is greater than 10000 nM.

For the compound `CC(C)n1cnc2c(NCc3ccc(-c4ccccc4)cc3)nc(NC3CCC(NC(=O)C4CC4)CC3)nc21` (centres unmarked) [Compound 261], the GI50 with HeLa S-3 cells stood at 300 nM. This counts as sub-micromolar.

In the case of `COC(=O)NC1CCC(Nc2nc(NCc3ccc(-c4ccccc4)cc3)c3ncn(C(C)C)c3n2)CC1` (centres unmarked) [Compound 259], the GI50 in the data set on HeLa S-3 cells is 300 nM and 400 nM and 700 nM.
